# Test results as given in patent US12050224B2, “Compounds useful as near-infrared fluorescent probes selectively binding to tau aggregates and method of preparing the same” (KOREA INSTITUTE OF SCIENCE AND TECHNOLOGY, priority 2020, dated 2024).
# Molecular target: T1, tau aggregates (Tau-K18 protein) (Homo sapiens, UniProt P10636)
# T1 construct: aggregation of Tau-K18 protein (0.5 mg/ml in PBS) purified and isolated from E. coli; made in house; host or cells: E. coli
# Test: In vitro binding assay (fluorescence labeling ability) to tau aggregates
# Conditions: compound 10 μM
# Procedure: (§1) Experimental Example 2-1: Tau and amyloid beta aggregation induction For amyloid aggregation induction, the synthesized Abeta40 (Amyloid Beta 40) peptide was dissolved in PBS at a concentration of 0.5 mg/ml to induce aggregation for 7 days at 37° C. and 200 rpm with shaking. To induce aggregation of tau proteins, aggregation of Tau-K18 protein (0.5 mg/ml in PBS) purified and isolated from E. coli with heparin (0.1 mg/ml) and DTT (100 μM) was induced at 37° C. and 200 rpm for 7 days under shaking conditions. […] At this time, thioflavin S (Th S), which is known to bind to beta-sheet structures such as tau and amyloid aggregates, was used as a control group (Ex: 430 nm, Em: 480-610 nm). Specifically, in order to determine the labeling ability of newly synthesized compounds to tau aggregate proteins, a 25 μl dilution of a 10 μM labeling substance in PBS and 25 id of a 0.125 mg/ml tau or amyloid pre-aggregate or aggregate diluted in PBS were each incubated for 30 minutes, and then a fluorescence spectrum reaction was measured using a spectrophotometer. Selectivity analysis for tau aggregates and amyloid beta aggregates of the novel synthetic compounds of the present invention was performed as described above, and the resulting in vitro fluorescence changes are summarized in Table 2 and FIG. 1 below.
# T1 sequence (P10636 561-685 limits assumed): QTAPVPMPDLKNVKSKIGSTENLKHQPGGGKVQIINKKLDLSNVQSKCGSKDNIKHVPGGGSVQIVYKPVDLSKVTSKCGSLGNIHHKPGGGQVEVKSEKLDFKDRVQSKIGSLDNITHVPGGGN
SMILES,SIaβ: selectivity index = fluorescence intensity of probe bound to Tau aggregate / bound to Aβ aggregate,"SItaumono: selectivity index, tau aggregate versus tau monomer"
"COc1ccc2nc(/C=C/c3ccncc3)ccc2c1 [Compound 14b, (E)-6-methoxy-2-(2-(pyridin-4-yl)vinyl)quinolone]",1.4,1.3
"CNc1ccc(/C=C/C=C/c2ccc3cc(OC)ccc3n2)cc1 [Compound 15b, 4-((1E,3E)-4-(6-methoxyquinolin-2-yl)buta-1,3-dien-1-yl)-N-methylanaline]",2.0,3.6
"COc1ccc2nc(/C=C/C=C/c3ccc(N(C)C)cc3)ccc2c1 [Compound 15c, 4-((1E,3E)-4-(6-methoxyquinolin-2-yl)buta-1,3-dien-1-yl)-N,N-dimethylaniline]",1.2,3.9
"COc1ccc2nc(/C=C/C=C/c3ccc(N(C)C)nc3)ccc2c1 [Compound 15d, 5-((1E,3E)-4-(6-methoxyquinolin-2-yl)buta-1,3-dien-1-yl)-N,N-dimethylpyridin-2-amine]",1.1,1.3

# Same assay, conditions: compound 10 μM, PBS, 30 min incubation
row,SMILES,FItau: fold increase = fluorescence intensity of probe bound to tau aggregate / probe (free)
1,"COc1ccc2nc(/C=C/c3ccncc3)ccc2c1 [Compound 14b, (E)-6-methoxy-2-(2-(pyridin-4-yl)vinyl)quinolone]",0.79
2,"CNc1ccc(/C=C/C=C/c2ccc3cc(OC)ccc3n2)cc1 [Compound 15b, 4-((1E,3E)-4-(6-methoxyquinolin-2-yl)buta-1,3-dien-1-yl)-N-methylanaline]",0.63
3,"COc1ccc2nc(/C=C/C=C/c3ccc(N(C)C)cc3)ccc2c1 [Compound 15c, 4-((1E,3E)-4-(6-methoxyquinolin-2-yl)buta-1,3-dien-1-yl)-N,N-dimethylaniline]",0.81
4,"COc1ccc2nc(/C=C/C=C/c3ccc(N(C)C)nc3)ccc2c1 [Compound 15d, 5-((1E,3E)-4-(6-methoxyquinolin-2-yl)buta-1,3-dien-1-yl)-N,N-dimethylpyridin-2-amine]",1.33

# Molecular target: T2, amyloid beta aggregates (Abeta40) (Homo sapiens, UniProt P05067)
# T2 construct: the synthesized Abeta40 (Amyloid Beta 40) peptide was dissolved in PBS; host or cells: synthetic peptide
# T2 sequence (P05067 672-711 limits assumed): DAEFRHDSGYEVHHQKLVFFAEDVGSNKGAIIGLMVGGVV
# Test: In vitro binding assay (fluorescence labeling ability) to amyloid beta aggregates
# Conditions: compound 10 μM, PBS, 30 min incubation
# Procedure: as §1
row,SMILES,FIAβ: fold increase = fluorescence intensity of probe bound to Aβ aggregate / probe (free)
1,"COc1ccc2nc(/C=C/c3ccncc3)ccc2c1 [Compound 14b, (E)-6-methoxy-2-(2-(pyridin-4-yl)vinyl)quinolone]",0.57
2,"CNc1ccc(/C=C/C=C/c2ccc3cc(OC)ccc3n2)cc1 [Compound 15b, 4-((1E,3E)-4-(6-methoxyquinolin-2-yl)buta-1,3-dien-1-yl)-N-methylanaline]",0.32
3,"COc1ccc2nc(/C=C/C=C/c3ccc(N(C)C)cc3)ccc2c1 [Compound 15c, 4-((1E,3E)-4-(6-methoxyquinolin-2-yl)buta-1,3-dien-1-yl)-N,N-dimethylaniline]",0.18
4,"COc1ccc2nc(/C=C/C=C/c3ccc(N(C)C)nc3)ccc2c1 [Compound 15d, 5-((1E,3E)-4-(6-methoxyquinolin-2-yl)buta-1,3-dien-1-yl)-N,N-dimethylpyridin-2-amine]",1.25

# Tested on: not listed separately
# Test: Measurement of absorbance and fluorescence of synthesized compound in ethanol
# Assay type: physicochemical
# Conditions: 10 μM in ethanol, average of three measurements
# Procedure: In order to investigate the optical properties of the newly synthesized compound in the present invention, the absorbance was measured using a V-730 UV-visible spectrophotometer manufactured by JASCO, and fluorescence was measured using a FlexStation 3 multi-mode microplate reader manufactured by Molecular Devices. Absorbance and fluorescence were measured three times at a concentration of 10 μM in ethanol, and the average thereof is shown in Table 1 below. At this time, T807 (AV-1451) as a Tau positron-emission-tomography (PET) tracer and Thioflavin S, which are commercially available to detect tau production in vivo, were used as a control group.
SMILES,λem: Maximum emission wavelength [nm],λex: Maximum excitation wavelength [nm]
"COc1ccc2nc(/C=C/c3ccncc3)ccc2c1 [Compound 14b, (E)-6-methoxy-2-(2-(pyridin-4-yl)vinyl)quinolone]",420,357
"CNc1ccc(/C=C/C=C/c2ccc3cc(OC)ccc3n2)cc1 [Compound 15b, 4-((1E,3E)-4-(6-methoxyquinolin-2-yl)buta-1,3-dien-1-yl)-N-methylanaline]",602,400
"COc1ccc2nc(/C=C/C=C/c3ccc(N(C)C)cc3)ccc2c1 [Compound 15c, 4-((1E,3E)-4-(6-methoxyquinolin-2-yl)buta-1,3-dien-1-yl)-N,N-dimethylaniline]",600,399
"COc1ccc2nc(/C=C/C=C/c3ccc(N(C)C)nc3)ccc2c1 [Compound 15d, 5-((1E,3E)-4-(6-methoxyquinolin-2-yl)buta-1,3-dien-1-yl)-N,N-dimethylpyridin-2-amine]",520,402
"Fc1ccc(-c2ccc3c(c2)[nH]c2ccncc23)cn1 [Compound T807, reference compound]",369,304

# Same assay, conditions: 10 μM in ethanol; difference between excitation and emission
row,SMILES,Stokes shift [nm]
1,"COc1ccc2nc(/C=C/c3ccncc3)ccc2c1 [Compound 14b, (E)-6-methoxy-2-(2-(pyridin-4-yl)vinyl)quinolone]",63
2,"CNc1ccc(/C=C/C=C/c2ccc3cc(OC)ccc3n2)cc1 [Compound 15b, 4-((1E,3E)-4-(6-methoxyquinolin-2-yl)buta-1,3-dien-1-yl)-N-methylanaline]",202
3,"COc1ccc2nc(/C=C/C=C/c3ccc(N(C)C)cc3)ccc2c1 [Compound 15c, 4-((1E,3E)-4-(6-methoxyquinolin-2-yl)buta-1,3-dien-1-yl)-N,N-dimethylaniline]",201
4,"COc1ccc2nc(/C=C/C=C/c3ccc(N(C)C)nc3)ccc2c1 [Compound 15d, 5-((1E,3E)-4-(6-methoxyquinolin-2-yl)buta-1,3-dien-1-yl)-N,N-dimethylpyridin-2-amine]",118
5,"Fc1ccc(-c2ccc3c(c2)[nH]c2ccncc23)cn1 [Compound T807, reference compound]",65

# Molecular target: bovine serum albumin (BSA) (Bos taurus, UniProt P02769)
# Sequence (P02769 25-607): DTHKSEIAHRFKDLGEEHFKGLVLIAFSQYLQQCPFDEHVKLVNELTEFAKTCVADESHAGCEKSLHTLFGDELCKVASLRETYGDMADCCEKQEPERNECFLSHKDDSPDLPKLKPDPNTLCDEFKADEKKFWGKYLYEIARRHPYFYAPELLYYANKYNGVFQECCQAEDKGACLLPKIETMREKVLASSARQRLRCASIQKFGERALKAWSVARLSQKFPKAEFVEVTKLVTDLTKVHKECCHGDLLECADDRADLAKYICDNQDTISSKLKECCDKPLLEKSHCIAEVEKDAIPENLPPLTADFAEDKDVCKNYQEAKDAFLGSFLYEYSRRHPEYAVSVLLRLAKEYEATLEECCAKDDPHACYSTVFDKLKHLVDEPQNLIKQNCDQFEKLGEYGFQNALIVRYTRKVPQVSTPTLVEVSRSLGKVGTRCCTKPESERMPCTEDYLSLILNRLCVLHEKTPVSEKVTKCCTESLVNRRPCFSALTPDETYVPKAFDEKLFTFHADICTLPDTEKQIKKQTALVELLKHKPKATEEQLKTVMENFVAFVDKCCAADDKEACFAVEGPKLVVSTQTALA
# Test: Measurement of non-specific binding using BSA
# Conditions: compound 10 μM, 0.25 mg/ml BSA, 30 min incubation
# Procedure: In order to exclude non-specific binding of the compound to serum, reactivity between the compound and bovine serum albumin (BSA) was further tested. 25 μl of a 10 μM compound was incubated along with 25 μl of 0.25 mg/ml BSA for 30 minutes, and then the fluorescence spectrum reaction was measured using a spectrophotometer. The BSA response was conducted to identify non-selective binding to other proteins in the blood when applied to patients as an imaging agent.
row,SMILES,FIBSA: fold increase = fluorescence intensity of probe bound to BSA / probe (free)
1,"COc1ccc2nc(/C=C/c3ccncc3)ccc2c1 [Compound 14b, (E)-6-methoxy-2-(2-(pyridin-4-yl)vinyl)quinolone]",0.61
2,"CNc1ccc(/C=C/C=C/c2ccc3cc(OC)ccc3n2)cc1 [Compound 15b, 4-((1E,3E)-4-(6-methoxyquinolin-2-yl)buta-1,3-dien-1-yl)-N-methylanaline]",0.26
3,"COc1ccc2nc(/C=C/C=C/c3ccc(N(C)C)cc3)ccc2c1 [Compound 15c, 4-((1E,3E)-4-(6-methoxyquinolin-2-yl)buta-1,3-dien-1-yl)-N,N-dimethylaniline]",0.19
4,"COc1ccc2nc(/C=C/C=C/c3ccc(N(C)C)nc3)ccc2c1 [Compound 15d, 5-((1E,3E)-4-(6-methoxyquinolin-2-yl)buta-1,3-dien-1-yl)-N,N-dimethylpyridin-2-amine]",1.05
